Like-named read-outs stand apart in the source and are kept apart here.
Experiment: Pharmacokinetic study in rats (oral gavage and tail vein injection, plasma LC-MS/MS)
Type: in vivo
Settings: rat; for Cmax: read-out: Cmax
Experimental: Male SPF-grade SD rats (Beijing Vital River Laboratory Animal Technology Co., Ltd.) with a body weight range of 200 to 250 g were used. After acclimatization, the rats were administered a clear solution of the compound of the present disclosure via oral gavage (Po, fasted overnight before administration with free access to water, food returned 4 hours after administration) and tail vein injection (Iv, free access to food and water throughout the administration). Blood samples were collected from the orbital venous plexus/jugular vein of rats at specified time points after administration (blood collection time points for the PO group: 0.167, 0.5, 1, 2, 4, 6, 8, and 24 h; for the IV group: 0.033, 0.167, 1, 2, 4, 6, 8, and 24 h). The concentration of compounds in plasma was detected by LC-MS/MS (AB SCIEX Qtrap4500). Data were analyzed using WinNonlin (version 5.2.1 Pharsight, Mountain View, CA) with a non-compartmental model to obtain PK parameters (including Cmax, C0, Tmax, AUClast, AUCinf, T1/2, etc.).
Table 3: Results of in vivo pharmacokinetic studies of compounds of the present disclosure in rats
The vehicle for the Po group compound was 5% DMSO + 5% ethanol + 60% PEG400 + 30% normal saline; the vehicle for the Iv group compound was 10% ethanol + 20% pure water + 70% PEG400 solution.

Compound	half-life (male, SD, iv, 1 mg/kg)	half-life (male, SD, po, 1 mg/kg)	AUC(0-t) (male, SD rats, Iv, 1 mg/kg)	Cmax (male, SD rats, Iv, 1 mg/kg)	AUC(0-t) (male, SD rats, Po, 1 mg/kg)	Cmax (male, SD rats, Po, 1 mg/kg)	AUC(0-t) (in vivo, SD rats, Iv, 1 mg/kg)	Cmax (in vivo, SD rats, Iv, 1 mg/kg)	half-life (in vivo, iv, 1 mg/kg, SD rats)	other results
Cc1nc(-c2nnn(C)c2NC(=O)O[C@H](C)CC(C)(F)F)ccc1C#C[C@@H]1CC[C@H]1C(=O)O (mixture of isomers) [compound 213, trans-2-((6-(5-(((((R)-4,4-difluoropentan-2-yl)oxy)carbonyl)amino)-1-methyl-1H-1,2,3-triazol-4-yl)-2-methylpyridin-3-yl)ethynyl)cyclobutane-1-carboxylic acid]	10.4 h	9.97 h	5000 to 10000 ng·h/mL	800 to 5000 ng/mL	5000 to 10000 ng·h/mL	200 to 800 ng/mL				
CCC[C@@H](C)OC(=O)Nc1c(-c2ccc(C#C[C@@H]3C[C@H]3C(=O)O)c(C)n2)nnn1C (mixture of isomers) [compound 224, trans-2-((2-methyl-6-(1-methyl-5-(((((R)-pentan-2-yl)oxy)carbonyl)amino)-1H-1,2,3-triazol-4-yl)pyridin-3-yl)ethynyl)cyclopropane-1-carboxylic acid]	4.78 h	3.76 h	5000 to 10000 ng·h/mL	800 to 5000 ng/mL	5000 to 10000 ng·h/mL	800 to 5000 ng/mL				
Cc1nc(-c2nnn(C)c2NC(=O)OC(C)C23CC(C2)C3)ccc1C#CC1(CC(=O)O)CC1 (racemic) [compound 260]										AUC(0-t) (SD rats, Iv, 1 mg/kg): 5000 to 10000 ng·h/mL; half-life (SD rats, Iv, 1 mg/kg): 8.44 h; Cmax (SD rats, Iv, 1 mg/kg): 800 to 5000 ng/mL; AUC(0-t) (SD rats, Po, 1 mg/kg): 5000 to 10000 ng·h/mL; half-life (SD rats, Po, 1 mg/kg): 9.12 h; Cmax (SD rats, Po, 1 mg/kg): 200 to 800 ng/mL
Cc1nc(-c2nnn(C)c2COC(=O)N(C)CCC(C)(F)F)ccc1C#C[C@@H]1CCC[C@H]1C(=O)O (racemic) [compound 282, trans-2-((6-(5-((((3,3-difluorobutyl)(methyl)carbamoyl)oxy)methyl)-1-methyl-1H-1,2,3-triazol-4-yl)-2-methylpyridin-3-yl)ethynyl)cyclopentane-1-carboxylic acid]	6.07 h	4.58 h	1200 to 3000 ng·h/mL	800 to 5000 ng/mL	1200 to 3000 ng·h/mL	200 to 800 ng/mL				
Cc1nc(-c2nnn(C)c2NC(=O)OC(C)CC(C)(F)F)ccc1C#CC1(CC(=O)O)CC1 (racemic) [compound 311]										AUC(0-t) (SD rats, Iv, 1 mg/kg): 5000 to 10000 ng·h/mL; half-life (SD rats, Iv, 1 mg/kg): 9.33 h; Cmax (SD rats, Iv, 1 mg/kg): 800 to 5000 ng/mL; AUC(0-t) (SD rats, Po, 1 mg/kg): 3000 to 5000 ng·h/mL; half-life (SD rats, Po, 1 mg/kg): 8.49 h; Cmax (SD rats, Po, 1 mg/kg): 200 to 800 ng/mL
Cc1nc(-c2nnn(C)c2COC(=O)N(C)CCC(C)(F)F)ccc1C#CC1CCC1C(=O)O (racemic) [compound 359]							1200 to 3000 ng·h/mL	800 to 5000 ng/mL	7.63 h	AUC(0-t) (in vivo, SD rats, Po, 1 mg/kg): 1200 to 3000 ng·h/mL; Cmax (in vivo, SD rats, Po, 1 mg/kg): 200 to 800 ng/mL; half-life (in vivo, po, 1 mg/kg, SD rats): 6.24 h
Cc1nc(-c2nnn(C)c2COC(=O)N(C)CC2CCC2)ccc1C#CC1CC1C(=O)O (racemic) [compound 361]										AUC(0-t) (SD rats, Iv, 1 mg/kg): 1200 to 3000 ng·h/mL; half-life (SD rats, Iv, 1 mg/kg): 3.03 h; Cmax (SD rats, Iv, 1 mg/kg): 800 to 5000 ng/mL; AUC(0-t) (SD rats, Po, 1 mg/kg): 1200 to 3000 ng·h/mL; half-life (SD rats, Po, 1 mg/kg): 2.53 h; Cmax (SD rats, Po, 1 mg/kg): 200 to 800 ng/mL
Cc1nc(-c2nnn(C)c2NC(=O)OC(C)CCCF)ccc1C#CC1(CC(=O)O)CC1 (single isomer, unassigned) [280-B]							5000 to 10000 ng·h/mL	800 to 5000 ng/mL	6.47 h	AUC(0-t) (in vivo, SD rats, Po, 3 mg/kg): 10000 to 20000 ng·h/mL; Cmax (in vivo, SD rats, Po, 3 mg/kg): 800 to 5000 ng/mL; half-life (in vivo, po, 3 mg/kg, SD rats): 6.57 h
CCC[C@H](C)OC(=O)Nc1c(-c2ccc(C#CC3(CC(=O)O)CC3)c(C)n2)nnn1C [010-B]							5000 to 10000 ng·h/mL	800 to 5000 ng/mL	8.56 h	AUC(0-t) (in vivo, SD rats, Po, 3 mg/kg): 10000 to 20000 ng·h/mL; Cmax (in vivo, SD rats, Po, 3 mg/kg): 800 to 5000 ng/mL; half-life (in vivo, po, 3 mg/kg, SD rats): 6.85 h
CCC(F)(F)[C@@H](C)OC(=O)Nc1c(-c2ccc(C#CC3(CC(=O)O)CC(OC)C3)c(C)n2)nnn1C (stereo partly drawn) [compound 279]										AUC(0-t) (SD rats, Iv, 1 mg/kg): 5000 to 10000 ng·h/mL; half-life (SD rats, Iv, 1 mg/kg): 5.82 h; Cmax (SD rats, Iv, 1 mg/kg): 5000 to 8000 ng/mL; AUC(0-t) (SD rats, Po, 1 mg/kg): 5000 to 10000 ng·h/mL; half-life (SD rats, Po, 1 mg/kg): 6.39 h; Cmax (SD rats, Po, 1 mg/kg): 800 to 5000 ng/mL
Cc1nc(-c2nnn(C)c2NC(=O)OC(C)CCC(F)F)ccc1C#CC1(CC(=O)O)CC1 (stereo not drawn) [compound 283, 2-(1-((6-(5-((((5,5-difluoropentan-2-yl)oxy)carbonyl)amino)-1-methyl-1H-1,2,3-triazol-4-yl)-2-methylpyridin-3-yl)ethynyl)cyclopropyl)acetic acid]	7.36 h	6.9 h	5000 to 10000 ng·h/mL	800 to 5000 ng/mL	5000 to 10000 ng·h/mL	200 to 800 ng/mL				
Cc1nc(-c2nnn(C)c2NC(=O)OC(C)C23CC(F)(C2)C3)ccc1C#CC1(CC(=O)O)CC1 (stereo not drawn) [compound 285]			5000 to 10000 ng·h/mL	800 to 5000 ng/mL	3000 to 5000 ng·h/mL	200 to 800 ng/mL				half-life (male, SD rats, Iv, 1 mg/kg): 9.86 h; half-life (male, SD rats, Po, 1 mg/kg): 6.12 h
Cc1nc(-c2nnn(C)c2NC(=O)OC(C)CC(C)(F)F)ccc1C#CC1CC1C(=O)O (stereo not drawn) [compound 291]							5000 to 10000 ng·h/mL	800 to 5000 ng/mL	4.68 h	AUC(0-t) (in vivo, SD rats, Po, 1 mg/kg): 3000 to 5000 ng·h/mL; Cmax (in vivo, SD rats, Po, 1 mg/kg): 800 to 5000 ng/mL; half-life (in vivo, po, 1 mg/kg, SD rats): 5.15 h
Cc1nc(-c2nnn(C)c2NC(=O)O[C@H](C)c2ccccc2)ccc1C#C[C@@H]1C[C@H]1C(=O)O [compound 295]	3.46 h	3.49 h	5000 to 10000 ng·h/mL	800 to 5000 ng/mL	10000 to 20000 ng·h/mL	800 to 5000 ng/mL				
Cc1nc(-c2nnn(C)c2NC(=O)O[C@H](C)CC(C)(C)F)ccc1C#C[C@@H]1CC[C@H]1C(=O)O [compound 306]							3000 to 5000 ng·h/mL	800 to 5000 ng/mL	7.66 h	AUC(0-t) (in vivo, SD rats, Po, 1 mg/kg): 3000 to 5000 ng·h/mL; Cmax (in vivo, SD rats, Po, 1 mg/kg): 200 to 800 ng/mL; half-life (in vivo, po, 1 mg/kg, SD rats): 7.2 h
Cc1nc(-c2nnn(C)c2NC(=O)O[C@H](C)CCC(C)(F)F)ccc1C#CC1(CC(=O)O)CC1 [compound 314]							3000 to 5000 ng·h/mL	800 to 5000 ng/mL	8.42 h	AUC(0-t) (in vivo, SD rats, Po, 1 mg/kg): 5000 to 10000 ng·h/mL; Cmax (in vivo, SD rats, Po, 1 mg/kg): 200 to 800 ng/mL; half-life (in vivo, po, 1 mg/kg, SD rats): 6.41 h
CCCN(C)C(=O)OCc1c(-c2ccc(C#C[C@@H]3CCC[C@H]3C(=O)O)c(C)n2)nnn1C [compound 355]	6.65 h	5.53 h	1200 to 3000 ng·h/mL	800 to 5000 ng/mL	1200 to 3000 ng·h/mL	200 to 800 ng/mL				
CCCc1ccnc(NCc2c(-c3ccc(C#CC4(CC(=O)O)CC4)c(C)n3)nnn2C)n1 [compound 365]										AUC(0-t) (SD rats, Iv, 1 mg/kg): 1200 to 3000 ng·h/mL; half-life (SD rats, Iv, 1 mg/kg): 7.21 h; Cmax (SD rats, Iv, 1 mg/kg): 800 to 5000 ng/mL; AUC(0-t) (SD rats, Po, 1 mg/kg): 1200 to 3000 ng·h/mL; half-life (SD rats, Po, 1 mg/kg): 5.98 h; Cmax (SD rats, Po, 1 mg/kg): 200 to 800 ng/mL

From patent EP4755881A1 (Wuhan Createrna Science and Technology Co., Ltd., priority 2023, dated 2025)
